Reference: patent US20230381190A1, “Methods and Treatment for Complex Lymphatic Malformations” (priority 2022, published 2023)
Values joined by “and” are separate entries in the source; they are usually repeats but may differ in a detail not shown here. Equal entries are not always repeated. Where two headings read alike, the source gives them in different places.

Key:
[1] = Modeling and simulation of human PK for dose selection; conditions: total daily dose 1.0 mg, divided every 12 hours, 50th percentile
From the text: The doses proposed for this study were selected after modeling and simulation of the human PK of CERC-006 using data reported by Mateo et al (Mateo J, Olmos D, Dumez H, et al. A first in man, dose-finding study of the mTORC1/mTORC2 inhibitor OSI-027 in patients with advanced solid malignancies. Br J Cancer. 2016114(8):889-896) and comparing the PK/PD response for sirolimus in patients with complicated vascular anomalies published by Adams et al (Adams et al, Pediatrics (2016)) and Mizuno et al (Mizuno T, Emoto C, Fukuda T, et al. Model-based precision dosing of sirolimus in pediatric patients with vascular anomalies. Eur J Pharm Sci. 2017; 109S:S124-S131). The goal was to estimate doses that would produce effective trough plasma concentrations of CERC-006 in relation to pharmacological target potency (mTOR complex inhibition) using the PK/PD response achieved by sirolimus in this patient population as a benchmark. […] The additional dose proposed, 2.0 mg/day, is necessary to ensure potential therapeutic benefit while preserving safety and providing a range of plasma concentrations to guide future PK/PD modeling efforts.

[2] = cited from earlier work
[3] = cited from earlier work; remark: listed apart in the source
[4] = linear extrapolation from simulated PK profile, listed as CERC-006
[5] = regardless of relationship, 123 subjects

COc1cccc2cc(-c3nc([C@H]4CC[C@H](C(=O)O)CC4)n4ncnc(N)c34)[nH]c12 [AVTX-006, trans-4-[4-Amino-5-(7-methoxyl-1H-indol-2-yl)-imidazo[5,1-f][1,2,4]triazine-7-yl]-cyclohexanecarboxylic acid]
Free trough concentration above the in vitro IC50 for mTOR complex inhibition [1]: approximately 2 fold
Free trough plasma concentration [1, 4]: ~4 ng/mL and ~10 nM
Total trough plasma concentration [1, 4]: approximately 27 ng/mL and ~66 nM
Estimated terminal half-life (t1/2) ([2]; 240 mg dose in S2 (weekly dose schedule)): approximately 14 hours
Dose proportionality of area under the curve (AUC) ([2]; S1 and S2, slope close to 1): dose proportional
Dose proportionality of increases in Cmax ([2]; S1 and S3): apparently proportional to dose
Subjects with TEAEs considered drug regimen-related ([3]; 92 of 123 subjects, by the investigator): 74.8%
Drug regimen related TEAE anorexia ([3]; 123 subjects): 21.1%
Drug regimen related TEAE fatigue ([3]; 123 subjects): 44.7%
Drug regimen related TEAE increased blood creatinine ([3]; 123 subjects): 26.0%
Drug regimen related TEAE nausea ([3]; 123 subjects): 40.7%
Drug regimen related TEAE vomiting ([3]; 123 subjects): 18.7%
Subjects with related SAEs ([3]; Fifteen subjects): 12.2%
Subjects with serious adverse events (SAEs) ([3]; Fifty of 123 subjects treated): 40.6%
Maximum tolerated dose (MTD) ([3]; S1: once daily for 3 consecutive days every 7 days): 120 mg
Deaths, subjects ([3]; S1): 48.2%
Maximum tolerated dose (MTD) ([3]; S2: once weekly, escalation stopped at 240 mg every week): not reached
Deaths, subjects ([3]; S2): 25.6%
Maximum tolerated dose (MTD) ([3]; S3: once daily dosing): 30 mg
Dose at which renal toxicity was dose limiting ([3]; S3: once daily): 40 mg
Deaths, subjects ([3]; S3): 14.3%
Deaths considered drug related ([3]; all schedules): None
Observed dose limiting toxicities (DLTs) ([3]; all schedules): fatigue, renal, and cardiac events
Related SAE anorexia ([3]; in vivo): 1 subject
Related SAE blood creatinine increased ([3]; in vivo): 2 subjects
Related SAE bone pain ([3]; in vivo): 1 subject
Related SAE cardiac failure congestive ([3]; in vivo): 1 subject
Related SAE cataract subcapsular ([3]; in vivo): 1 subject
Related SAE diarrhea ([3]; in vivo): 1 subject
Related SAE fatigue ([3]; in vivo): 3 subjects
Related SAE myocardial infarction ([3]; in vivo): 1 subject
Related SAE nausea ([3]; in vivo): 3 subjects
Related SAE pneumonia ([3]; in vivo): 1 subject
Related SAE renal failure ([3]; in vivo): 1 subject
Related SAE stress cardiomyopathy ([3]; in vivo): 1 subject
Related SAE supraventricular tachycardia ([3]; in vivo): 1 subject
Related SAE urticaria ([3]; in vivo): 1 subject
Related SAE vomiting ([3]; in vivo): 2 subjects
TEAE abdominal pain upper, subjects [3, 5]: 10.6%
TEAE abdominal pain, subjects [3, 5]: 17.1%
TEAE anemia, subjects [3, 5]: 13.8%
TEAE anorexia, subjects [3, 5]: 40.7%
TEAE back pain, subjects [3, 5]: 14.6%
TEAE blood creatinine increased, subjects [3, 5]: 28.5%
TEAE constipation, subjects [3, 5]: 25.2%
TEAE cough, subjects [3, 5]: 14.6%
TEAE diarrhea, subjects [3, 5]: 22.8%
TEAE dyspnea, subjects [3, 5]: 17.1%
TEAE fatigue, subjects [3, 5]: 65.0%
TEAE headache, subjects [3, 5]: 14.6%
TEAE hypokalemia, subjects [3, 5]: 12.2%
TEAE nausea, subjects [3, 5]: 60.2%
TEAE vomiting, subjects [3, 5]: 33.3%
TEAE weight decreased, subjects [3, 5]: 13.8%
